In brackets after ≈: the same amount, converted by molar mass. Values belong to the compound of their own block, whether it stands above or below them.
Legend:
HepG2 [1] = assay: Antiproliferative activity against human HepG2 cells assessed as inhibition of cell growth by MTT assay; format: functional, cell-based
MCF7 [2] = assay: Antiproliferative activity against human MCF7 cells assessed as inhibition of cell growth by MTT assay; format: functional, cell-based
LoVo = assay: Antiproliferative activity against human LoVo cells assessed as inhibition of cell growth by MTT assay; format: functional, cell-based
AGS = assay: Antiproliferative activity against human AGS cells assessed as inhibition of cell growth incubated for 24 hrs by MTT assay; format: functional, cell-based
L1210 = assay: Antiproliferative activity against mouse L1210 cells assessed as inhibition of cell growth incubated for 24 hrs by MTT assay; format: functional, cell-based; settings: L1210, 24 h
[3] = Antiproliferative activity against human BC cells assessed as inhibition of cell growth incubated for 24 hrs by MTT assay; format: functional, cell-based
HepG2 [4] = assay: Antiproliferative activity against human HepG2 cells assessed as inhibition of cell growth incubated for 24 hrs by MTT assay; format: functional, cell-based; settings: HepG2, 24 h
CAKI-2 = assay: Antiproliferative activity against human CAKI-2 cells assessed as inhibition of cell growth incubated for 24 hrs by SRB assay; format: functional, cell-based; settings: CAKI-2, 24 h
MCF7 [5] = assay: Antiproliferative activity against human MCF7 cells assessed as inhibition of cell growth incubated for 24 hrs by SRB assay; format: functional, cell-based; settings: MCF7, 24 h
LS174T = assay: Antiproliferative activity against human LS174T cells assessed as inhibition of cell growth incubated for 24 hrs by SRB assay; format: functional, cell-based
[6] = Antiproliferative activity against human StMl1 1a cells assessed as inhibition of cell growth incubated for 24 hrs by SRB assay; format: functional, cell-based
MDA-MB-231 = assay: Antiproliferative activity against human MDA-MB-231 cells assessed as inhibition of cell growth incubated for 72 hrs by MTT assay; format: functional, cell-based; settings: MDA-MB-231, 72 h
Huh-7 = assay: Antiproliferative activity against human Huh-7 cells assessed as inhibition of cell growth incubated for 72 hrs by MTT assay; format: functional, cell-based; settings: Huh-7, 72 h
[7] = Antiproliferative activity against human AV3 cells assessed as inhibition of cell growth incubated for 72 hrs by MTT assay; format: functional, cell-based; settings: AV3, 72 h
HeLa [8] = assay: Antiproliferative activity against human HeLa cells assessed as inhibition of cell growth incubated for 6 hrs; format: functional, cell-based
HeLa [9] = assay: Antiproliferative activity against human HeLa cells assessed as inhibition of cell growth incubated for 24 hrs; format: functional, cell-based
A549 [10] = assay: Antiproliferative activity against human A549 cells assessed as inhibition of cell growth; format: functional, cell-based
HT-29 = assay: Antiproliferative activity against human HT-29 cells assessed as inhibition of cell growth; format: functional, cell-based
NCI-H460 = assay: Antiproliferative activity against human NCI-H460 cells assessed as inhibition of cell growth by MTT assay; format: functional, cell-based
KB [11] = assay: Antiproliferative activity against human KB cells assessed as inhibition of cell growth incubated for 72 hrs by neutral red based colorimetric assay; format: functional
KB [12] = assay: Antiproliferative activity against drug-sensitive human KB cells assessed as inhibition of cell growth; format: functional, cell-based
[13] = Antiproliferative activity against vincristine-resistant human KB cells assessed as inhibition of cell growth; format: functional, cell-based
A549 [14] = assay: Antiproliferative activity against human A549 cells assessed as inhibition of cell growth incubated for 72 hrs by SRB assay; format: functional, cell-based; settings: A549, 72 h
MCF7 [15] = assay: Antiproliferative activity against human MCF7 cells assessed as inhibition of cell growth incubated for 72 hrs by SRB assay; format: functional, cell-based; settings: MCF7, 72 h
HCT-116 = assay: Cytotoxicity against human HCT-116 cells assessed as reduction in cell viability at 20 uM measured after 48 hrs by MTS assay relative to control; format: functional

SMILES: CC[C@]1(O)C[C@H]2C[C@](C(=O)OC)(c3cc4c(cc3OC)N(C)[C@@H]3[C@]45CCN4CC=C[C@@](CC)(C[C@]3(O)C(=O)OC)[C@H]45)c3[nH]c4ccccc4c3CC[N+]([O-])(C2)C1
IC50 (HepG2 [1]): 28.1 µM
IC50 (MCF7 [2]): 42.7 µM
IC50 (LoVo): > 100 µM

SMILES: O=C1N[C@@H](c2c[nH]c3cc(Br)ccc23)CN=C1c1c[nH]c2cc(Br)ccc12 [HAMACANTHIN A]
IC50 (AGS): 1.1 µg/mL (≈ 2.26 µM)
IC50 (L1210): 1.1 µg/mL (≈ 2.26 µM)
IC50 [3]: 10.7 µg/mL (≈ 22 µM)
IC50 (HepG2 [4]): 12.5 µg/mL (≈ 25.7 µM)

SMILES: NC[C@@H](NC(=O)C(=O)c1c[nH]c2ccccc12)c1c[nH]c2cc(Br)ccc12
IC50 (HeLa [8]): > 200 µM
IC50 (HeLa [9]): > 200 µM

SMILES: O=C(C1=NC(c2c[nH]c3cc(Br)ccc23)CN1)c1c[nH]c2ccccc12 (centres undefined) [SPONGOTINE A]
IC50 (AGS): 1.1 µg/mL (≈ 2.7 µM)
IC50 (L1210): 1.1 µg/mL (≈ 2.7 µM)
IC50 [3]: 10.7 µg/mL (≈ 26.3 µM)

SMILES: COC(=O)c1[nH]cc2c1[C@]1(CNc3ccc(Cl)cc31)c1[nH]c3ccc(Cl)cc3c1-2
IC50 (HepG2 [1]): 6 µg/mL
IC50 (NCI-H460): 15 µg/mL (≈ 35.4 µM)

SMILES: C/C=C1/CN2CC[C@@]34c5cc(OC)c(-c6cc7c8c(n(C)c7cc6OC)[C@@H]6[C@H]7O[C@@H](C)[C@H](CN6C(=O)C(C)C)[C@H]7[C@H]8C(=O)OC)c(C)c5N[C@@]23CC[C@H]1[C@H]4C(=O)OC
IC50 (KB [11]): 5 µM

SMILES: CC[C@@H]1CN(C)[C@H]2Cc3c([nH]c4ccccc34)[C@H](c3cc4c5c([nH]c4cc3OC)[C@@]3(C(=O)OC)C[C@H]4C[C@@H](CC)[C@@H]3N(CC5)[C@H]4CC(C)=O)C[C@H]1[C@@H]2C(=O)OC
IC50 (A549 [14]): < 10 µM
IC50 (MCF7 [15]): < 10 µM
Activity (HCT-116): 70%

More lines, main results first:

IC50 (MCF7 [5]): 2 µM
SMILES: C/C=C1/CN2CC[C@@H]3c4ccccc4N4[C@H](C(=O)OC)[C@H]1C[C@H]2[C@]34/C=C/C1=COC[C@@H]2[C@H]1C[C@H]1c3c(c4ccccc4n3C)C[C@@H]2N1C
IC50 (CAKI-2): 2 µM
IC50 (LS174T): 2 µM
IC50 [6]: 2 µM

IC50 (HepG2 [1]): 38.2 µM
IC50 (MCF7 [2]): 51.3 µM
IC50 (LoVo): 65.2 µM
SMILES: CC[C@@H]1C[C@H]2C[C@](C(=O)OC)(c3cc4c(cc3OC)N(C)[C@H]3[C@@](O)(C(=O)OC)[C@H](OC(C)=O)[C@]5(CC)C=CCN6CC[C@]43[C@@H]65)c3[nH]c4ccccc4c3CC[N+]([O-])(C1)C2

IC50 (MDA-MB-231): 9.8 µM
IC50 (Huh-7): 9.8 µM
SMILES: C/C=C1/CCN2CC[C@@]34c5cc6c(cc5N(C)[C@]35OC[C@]4(C(=O)OC)[C@@H]1[C@H]25)O[C@@]12[C@@H]3C[C@H]4/C(=C\C)CN3CC[C@]1(C6)c1ccccc1N2[C@]4(CO)C(=O)OC
IC50 [7]: 9.8 µM

IC50 (A549 [10]): 0.00309 µM
IC50 (HT-29): 0.00205 µM
SMILES: COC(=O)C1=CN2CCc3c([nH]c4ccccc34)[C@@H]2C[C@@H]1C1=CO[C@@H]([C@H]2[C@@H]3CCN4CC[C@@]5(C(=C3C(=O)OC)Nc3ccccc35)[C@@H]24)C[C@@H]1C

IC50 (KB [12]): 0.57 µM
SMILES: C/C=C1/CN2[C@H]3Cc4c([nH]c5ccc(O)c([C@H]6Cn7c8c(c9ccccc97)CCN7CC=C[C@@]6(CC)[C@H]87)c45)[C@@H]2C[C@@H]1[C@]3(CO)C(=O)OC
IC50 [13]: 0.57 µM

IC50 (KB [12]): 0.57 µM
SMILES: CC[C@H]1[C@@H]2CCN3CC[C@@]4(C5=C2C[C@@]2(CN5c5ccccc54)C4=Nc5ccccc5[C@]45CCN4CC[C@H]2[C@H](CC)[C@@H]45)[C@@H]13
IC50 [13]: 0.57 µM
